Results published in US6657086B2, “C2-substituted indan-1-ols and their derivatives, processes for their preparation and their use as pharmaceuticals” (Aventis Pharma Deutschland GmbH, priority 2001, dated 2003).

How the values were obtained:
female NMRI mice = assay: Anorectic action: cumulative evaporated milk consumption after 24 h feed removal; assay type: in vivo; settings: compared with control animals
Description: The activity of the compounds was assayed as follows:
The anorectic action was tested on female NMRI mice. After removal of feed for 24 hours, the preparation to be tested was administered intraperitoneally (ip) or by gavage (po). The animals were housed singly and, with free access to drinking water, they were offered evaporated milk 30 minutes after administration of the preparation. The consumption of evaporated milk was determined and the general behavior of the animals was monitored every half an hour for 7 hours. The measured milk consumption was compared to that of vehicle-treated control animals.

Row | SMILES | melting point | Reduction in cumulative milk consumption as % of the control (female NMRI mice; dose 20 mg/kg) | Reduction in cumulative milk consumption as % of the control (female NMRI mice; dose 50 mg/kg)
1 | CS(=O)(=O)C1Cc2cc(Cl)ccc2C1O (stereo not shown) [Example 1, 5-Chloro-2-methylsulfonylindan-1-ol] | 163 °C | 50% | 
2 | CCS(=O)(=O)C1Cc2cc(Cl)ccc2C1O (stereo not shown) [Example 3, 5-Chloro-2-ethanesulfonylindan-1-ol] | 145 °C |  | 
3 | CSC1Cc2cc(Cl)ccc2C1O (stereo not shown) [Example 4, 5-Chloro-2-methylsulfanylindan-1-ol] |  |  | 85%
